# Test results published in patent US9497960B2, “Biocide compositions comprising alkoxylation products of isoamyl alcohol derivatives” (COGNIS IP MANAGEMENT GMBH, priority 2010, dated 2016).
# Tested on: barley powdery mildew (Blumeria graminis f. sp. hordei)
# Experiment: Curative greenhouse trial with Opus against barley powdery mildew
# Format: in vivo, Blumeria graminis f. sp. hordei on barley
# Conditions: curative; Opus 10 g/ha; adjuvant 50 ml/ha; inoculation 2 days prior to application; assessment 14 DAT; barley leaf segments
# Protocol: Opus SC125 (BASF) was tested to control barley powdery mildew (BPM) in a curative greenhouse trial, Azoxystrobin SC 250 in a protective trial. In each case, barley was cultivated in a substrate “Frustorder Erde” for three weeks. Each treatment was replicated 14 times. The adjuvant dose rate in each treatment was 50 ml/ha. Inoculation of the leaves with powdery mildew (Blumeria graminis f. sp. hordei) was done 2 days prior to application to test Opus' curative action. From the stem, leaf segments were cut off with a length of 10 cm using the flag leaf (F) and 2nd leaf (F-1). Altogether, the leaves of each were placed on benzimidazol agar i.e. 0.5% Agar with 40 ppm benzimidazol. The concentration of Opus for the leaf application was 10 g/ha. Assessment 14 days after treatment (14 DAT) of the efficacy against powdery mildew was done by counting the mildew pustules per leaf on a length of 7 cm. The assessment of the infection rate was conducted by a trained biologist.
row,Compound,"Infection rate of barley powdery mildew after treatment with fungicides, Opus"
1,"CC(C)CCC(COCCOCCOCCOCCOCCOCCOCCOCCOCCOCCO)C(C)C (centres unmarked) [Example 3, Isoamylguerbet + 10EO]",7%
2,"CC(C)CCC(COCCOCCOCCOCCOCCO)C(C)C (centres unmarked) [Example 4, Isoamylguerbet + 5EO]",12%
3,"CC(C)CCC(COCCOCCOCCO)C(C)C (centres unmarked) [Example 5, Isoamylguerbet + 3EO]",20%
4,Isoamylguerbet + 3EO + 3PO [Example 2],8%
5,Isoamylguerbet + 3PO + 3EO [Example 1],3%

# Same assay, conditions: sum of Opus (curative) and Amistar (protective) trials
row,Compound,Sum of infection rates
1,"CC(C)CCC(COCCOCCOCCOCCOCCOCCOCCOCCOCCOCCO)C(C)C (centres unmarked) [Example 3, Isoamylguerbet + 10EO]",12%
2,"CC(C)CCC(COCCOCCOCCOCCOCCO)C(C)C (centres unmarked) [Example 4, Isoamylguerbet + 5EO]",15%
3,"CC(C)CCC(COCCOCCOCCO)C(C)C (centres unmarked) [Example 5, Isoamylguerbet + 3EO]",24%
4,Isoamylguerbet + 3EO + 3PO [Example 2],8%
5,Isoamylguerbet + 3PO + 3EO [Example 1],3%

# Tested on: not listed separately
# Experiment: Dynamic and quasistatic surface tension, Krüss Bubble Pressure Tensiometer BP2
# Format: physicochemical
# Conditions: dynamic; 0.1% in demineralised water; Kruess BP 2; 20° C.
# Protocol: (§1) Definition of “quasistatic”: Static or equilibrium surface tension at an air-liquid interface can be determined by the Du Noüy ring method, the Wilhelmy plate etc. […] To avoid such problems, a dynamic method is used but the frequency is reduced to 0.1 Hz or less, thus close enough to equilibrium conditions. Dynamic surface tension is determined at a frequency of 10 Hz. It was determined at 20° C. with the Krüss Bubble Pressure Tensiometer BP2, available from Krüss GmbH, Borsteler Chaussee 85-99, 22453 Hamburg, Germany. Foam potential was tested with SITA foam tester R-2000, available from SITA Messtechnik GmbH, Gostritzer Str. 61-63, 01217 Dresden, Germany. The results are compiled in Tables 1 and 2
row,Compound,Surface tension at 10 Hz
1,"CC(C)CCC(COCCOCCOCCOCCOCCOCCOCCOCCOCCOCCO)C(C)C (centres unmarked) [Example 3, Isoamylguerbet + 10EO]",46 mN/m
2,"CC(C)CCC(COCCOCCOCCOCCOCCO)C(C)C (centres unmarked) [Example 4, Isoamylguerbet + 5EO]",39 mN/m
3,"CC(C)CCC(COCCOCCOCCO)C(C)C (centres unmarked) [Example 5, Isoamylguerbet + 3EO]",42 mN/m
4,Isoamylguerbet + 3EO + 3PO [Example 2],45 mN/m
5,Isoamylguerbet + 3PO + 3EO [Example 1],45 mN/m

# Same assay, conditions: quasistatic; 0.1% in demineralised water; Kruess BP 2; 20° C.
row,Compound,Surface tension at 0.1 Hz
1,"CC(C)CCC(COCCOCCOCCOCCOCCOCCOCCOCCOCCOCCO)C(C)C (centres unmarked) [Example 3, Isoamylguerbet + 10EO]",36 mN/m
2,"CC(C)CCC(COCCOCCOCCOCCOCCO)C(C)C (centres unmarked) [Example 4, Isoamylguerbet + 5EO]",30 mN/m
3,"CC(C)CCC(COCCOCCOCCO)C(C)C (centres unmarked) [Example 5, Isoamylguerbet + 3EO]",30 mN/m
4,Isoamylguerbet + 3EO + 3PO [Example 2],32 mN/m
5,Isoamylguerbet + 3PO + 3EO [Example 1],28 mN/m

# Tested on: not listed separately
# Experiment: Foam potential / foam height of aqueous adjuvant solutions
# Format: physicochemical
# Conditions: 0.1% aqueous solution/dispersion; Cipac MT 47, Cipac water D
# Protocol: as §1
Compound,Foam hight after 1 m,Foam hight after 5 m
"CC(C)CCC(COCCOCCOCCOCCOCCOCCOCCOCCOCCOCCO)C(C)C (centres unmarked) [Example 3, Isoamylguerbet + 10EO]",3 mL,2 mL
"CC(C)CCC(COCCOCCOCCOCCOCCO)C(C)C (centres unmarked) [Example 4, Isoamylguerbet + 5EO]",0 mL,0 mL
"CC(C)CCC(COCCOCCOCCO)C(C)C (centres unmarked) [Example 5, Isoamylguerbet + 3EO]",0 mL,0 mL
Isoamylguerbet + 3EO + 3PO [Example 2],0 mL,0 mL
Isoamylguerbet + 3PO + 3EO [Example 1],1 mL,0 mL

# Tested on: barley powdery mildew (BPM)
# Experiment: Protective trial with Amistar (Azoxystrobin SC 250) against barley powdery mildew
# Format: in vivo, Blumeria graminis f. sp. hordei on barley
# Conditions: 5 g/ha azoxystrobin, adjuvant 50 ml/ha, leaves cut 5 h after application, incubation 10 d
# Protocol: Opus SC125 (BASF) was tested to control barley powdery mildew (BPM) in a curative greenhouse trial, Azoxystrobin SC 250 in a protective trial. In each case, barley was cultivated in a substrate “Frustorder Erde” for three weeks. Each treatment was replicated 14 times. The adjuvant dose rate in each treatment was 50 ml/ha. 5 h after application with the equivalent of 5 g/ha azoxystrobin, leaf segments were cut off at a length of 7 cm from the stem. The leaves of the F and F-1 leaf were placed on agar. After the inoculation, the incubation time was 10 d. The assessment of the infection rate was conducted by a trained biologist.
row,Compound,"Infection rate of barley powdery mildew after treatment with fungicides, Amistar"
1,"CC(C)CCC(COCCOCCOCCOCCOCCOCCOCCOCCOCCOCCO)C(C)C (centres unmarked) [Example 3, Isoamylguerbet + 10EO]",5%
2,"CC(C)CCC(COCCOCCOCCOCCOCCO)C(C)C (centres unmarked) [Example 4, Isoamylguerbet + 5EO]",3%
3,"CC(C)CCC(COCCOCCOCCO)C(C)C (centres unmarked) [Example 5, Isoamylguerbet + 3EO]",4%
4,Isoamylguerbet + 3EO + 3PO [Example 2],0%
5,Isoamylguerbet + 3PO + 3EO [Example 1],0%
